From patent publication US8394971B2, “Indole derivatives as selective androgen receptor modulators (SARMS)” (Janssen Pharmaceutica N.V., priority 2004, dated 2013)
Read-outs that look alike come from different tables or passages of the source.

Key:
[1] = target: T1, androgen receptor (adenovirus AdEasy+rAR in L929 cells) (Rattus norvegicus, UniProt P15207); test: L929 Androgen Receptor Functional Assay, Adenovirus Transduction; format: cell-based; conditions: L929 agonist testing; 3000 nM
T1 construct: expressed in transfected cells
T1 sequence (P15207 1-902): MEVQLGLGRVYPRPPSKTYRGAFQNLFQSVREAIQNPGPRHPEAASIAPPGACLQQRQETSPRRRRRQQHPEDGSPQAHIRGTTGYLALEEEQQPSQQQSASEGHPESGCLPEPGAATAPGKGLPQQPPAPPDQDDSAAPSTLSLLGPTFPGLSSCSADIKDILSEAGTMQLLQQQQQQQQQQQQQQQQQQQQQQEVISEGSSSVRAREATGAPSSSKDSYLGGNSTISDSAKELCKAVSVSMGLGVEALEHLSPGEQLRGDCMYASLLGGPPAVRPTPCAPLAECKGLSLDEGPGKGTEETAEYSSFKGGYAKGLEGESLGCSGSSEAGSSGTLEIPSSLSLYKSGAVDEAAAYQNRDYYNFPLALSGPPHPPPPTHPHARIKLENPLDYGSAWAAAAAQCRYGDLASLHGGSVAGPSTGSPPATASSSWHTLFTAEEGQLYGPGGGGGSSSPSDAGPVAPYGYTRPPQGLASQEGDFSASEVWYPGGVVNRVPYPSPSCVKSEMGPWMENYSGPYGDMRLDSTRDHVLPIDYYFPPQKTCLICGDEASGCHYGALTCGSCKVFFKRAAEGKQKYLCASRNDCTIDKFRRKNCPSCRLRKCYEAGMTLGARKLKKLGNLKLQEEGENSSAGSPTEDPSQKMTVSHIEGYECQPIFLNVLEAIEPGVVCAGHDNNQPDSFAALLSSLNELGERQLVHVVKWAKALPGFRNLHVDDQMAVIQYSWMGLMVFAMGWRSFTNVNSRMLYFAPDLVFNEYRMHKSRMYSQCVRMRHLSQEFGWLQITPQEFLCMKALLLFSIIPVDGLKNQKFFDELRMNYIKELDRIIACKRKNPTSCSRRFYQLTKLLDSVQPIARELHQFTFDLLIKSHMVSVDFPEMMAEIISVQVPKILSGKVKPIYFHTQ
Method in brief: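 L929 cells in phenol red-free, charcoal-stripped serum medium transduced with AdEasy+rAR (moi 1:500) and exposed 48 h at 37 °C to compound alone (agonist mode) or with R1881 (antagonist mode; 2.5 nM as the 2.5× dilution).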

[2] = tested on: testosterone-enhanced ventral prostate and seminal vesicle weights in castrated male Sprague Dawley rats; test: Ventral Prostate and Seminal Vesicle Weight In Vivo Assay; set-up: species or system rat; conditions: immature castrated rats; once daily for five days, usually orally at 40 mg/kg, with testosterone propionate 2 mg/kg s.c.
Method in brief: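 Immature (~50 g) castrated Sprague Dawley rats dosed once daily for five days with compound (usually oral, 40 mg/kg, cyclodextrin or methylcellulose vehicle) plus testosterone propionate 2 mg/kg s.c. Wet ventral prostate and seminal vesicle weights taken on day six; activity judged by prostate weight or body-weight-adjusted % inhibition.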

[3] = target: T2, androgen receptor (rat ventral prostate cytosol) (Rattus norvegicus, UniProt P15207); test: Androgen Receptor Binding Using Rat Ventral Prostate Cytosol
T2 construct: from tissue; host or cells: ventral prostate of castrated male Sprague Dawley or Wistar rats, cytosol
T2 sequence (P15207 1-902): T1 sequence (P15207 1-902)
Procedure: (§1) The assay was run on a 96 well plate with each well filled with a total reaction volume 150 μL, of a solution containing 5 pmol androgen receptor LBD (Panvera) or 30 μL of freshly prepared rat cytosol, 0.5 nM [^3H] […] (TED buffer contains 10 mM Tris.HCl pH 7.4, 1 mM sodium molybdate, 1.5 mM EDTA, 1 mM DTT and 10% (v/v) glycerol.)
(§2) On day one, the solution containing receptor, tracer and TED buffer was distributed into a 96 well plate. Diluted test compound or control vehicle was then added to individual wells and the plate incubated at 4° C. overnight.
(§3) On day two, to each well was then added 20 μL human γ-globulin (ICN 823102), prepared at 25 mg/ml in TE pH 8.0, and 55 μL 40% polyethylene glycol 8000 (JT Baker U222-08), prepared in TE pH 8.0. The plate was incubated at 4° C. for 60 minutes. During incubation, the harvester was rinsed with 10% PEG 8000, prepared in TE pH 8.0, and a GF/C Unifilter-96 was pre-wet with 10% PEG. The binding reaction was filtered, the retentate was washed three times with 10% PEG and dried under vacuum for a couple of minutes, then dried at 50° C. for 5 min and the plate was bottom sealed. Next, 25 μL of Microscint-20 (Packard) was added to the filter wells and the plate was top sealed. The plate wells were then counted on a TopCount (Packard).
Rat Prostate Cytosol Preparation:
Male Sprague Dawley or Wistar rats (Charles River, 200-300 g) were used for each preparation. The day before preparing the cytosol, the rats were castrated using standard surgical procedures.
The rats were euthanized by carbon dioxide asphyxiation. The rat prostates were quickly removed and placed on ice in pre-chilled, pre-weighed 50 mL plastic tubes. No more than five prostates were placed into one tube. The tubes were then weighed and the prostate tissue wet weights calculated.
To the chilled prostate tissue was then added […] of chilled homogenization buffer. The homogenization buffer was freshly prepared by mixing 10 mM Tris.HCl, pH 7.4, 1 mM sodium molybdate, 1.5 mM EDTA, 1 mM dithiothreitol, 10% (v/v) glycerol and 1% protease inhibitor cocktail (Sigma P 8340).
The prostate tissue was homogenized in a cold room using a pre-chilled Polytron PT3000 homogenizer (Brinkmann). Homogenization was performed at a speed setting of 20, three times for 10 sec bursts. The tubes containing the prostate tissue was kept on ice while homogenizing. The homogenate was allowed to rest on ice for 20 sec between bursts.
The homogenate was then placed into pre-chilled 3 mL polycarbonate ultracentrifuge tubes and centrifuged in the TLA-100 rotor of a TL-100 ultracentrifuge for 12 min at 100,000 rpm at 4° C. The resulting supernatant was stored in 1 mL aliquots at −80° C. until needed.
Binding to the androgen receptor was determined according to the protocol described in Example 86 using the above prepared rat cytosol.
% Inhibition was determined by testing dilutions of the test compound (usually duplicates of 10 μM) in the binding assay. Counts per well were measured and percents of inhibition determined. […] Counts per well were measured and IC50s determined by linear regression.

[4] = target: T3, androgen receptor LBD (Panvera) (Rattus norvegicus, UniProt P15207); test: Androgen Receptor Filtration Binding Assay (PANVERA)
T3 construct: 5 pmol androgen receptor LBD (Panvera); purchased Panvera
T3 sequence (P15207 651-882 limits assumed): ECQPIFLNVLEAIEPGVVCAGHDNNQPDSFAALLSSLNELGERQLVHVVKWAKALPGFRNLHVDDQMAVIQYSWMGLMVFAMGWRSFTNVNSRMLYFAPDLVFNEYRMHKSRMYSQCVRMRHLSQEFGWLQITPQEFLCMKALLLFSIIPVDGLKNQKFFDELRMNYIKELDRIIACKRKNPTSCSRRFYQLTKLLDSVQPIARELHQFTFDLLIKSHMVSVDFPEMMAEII
Procedure: as §1, §2, §3
Counts per well were measured and IC50s determined by linear regression.

[5] = rat cytosol, concentration 3000 nM
[6] = rat cytosol, concentration 1000 nM
[7] = rat cytosol, concentration 1000 nM, 1 µM
[8] = Androgen Receptor Binding (Panvera), 0.5 nM [3H] R1881 tracer

SMILES	inhibition at 1 µM [3, 6]	IC50 ([3]; rat cytosol, read-out: IC50)	other results
CN(C)c1ccc(S(=O)(=O)CC(C)(O)c2cc3cc(Cl)c(C(F)(F)F)cc3[nH]2)cc1 (racemic) [compound 126]	–	–	% Activity [1]: −5%; active / inactive (inhibition of testosterone-enhanced prostate weight) [2]: inactive; % Inhibition [3, 5]: −30%
CC(C)SC(C)(CO)c1cc2cc([N+](=O)[O-])c(C(F)(F)F)cc2[nH]1 (racemic) [compound 268]	–	–	% Activity [1]: 9%; active / inactive (inhibition of testosterone-enhanced prostate weight) [2]: inactive; % Inhibition [3, 5]: −3.3%
OC1(c2cc3cc(Cl)c(C(F)(F)F)cc3[nH]2)CCN(Cc2ccc(C(F)(F)F)cc2)CC1 [Compound #33]	11%	29000 nM	–
OC1(c2cc3cc(Cl)c(C(F)(F)F)cc3[nH]2)CCN(Cc2ccc(Cl)c(Cl)c2)CC1 [compound 36]	-34%	–	IC50 ([3]; IC50 (nM)): > 100000 nM
O=[N+]([O-])c1cc2cc(C3(O)CCN(Cc4ccc(Cl)cc4)CC3)[nH]c2cc1C(F)(F)F [compound 40]	–	3800 nM	% Inhibition [3, 7]: −2.5%
CC(O)(c1cc2cc([N+](=O)[O-])c(C(F)(F)F)cc2[nH]1)S(=O)(=O)c1ccc(Cl)c(Cl)c1 (racemic) [compound 255]	–	–	% Inhibition [3, 6]: 26%
CC(C)(C)c1ccc(CN2CCC(O)(c3cc4cc(Cl)c(C(F)(F)F)cc4[nH]3)CC2)cc1 [Compound #32]	34%	43000 nM	–
CS(=O)(=O)n1c(C2(O)CCN(C(=O)c3ccc(Cl)cc3)CC2)cc2cc(Cl)c(C(F)(F)F)cc21 [compound 24]	–	–	% Inhibition [3, 6]: 2%
Cc1ccc(CN2CCC(O)(c3cc4cc([N+](=O)[O-])c(C(F)(F)F)cc4[nH]3)CC2)cc1 [Compound #42]	–	7100 nM	% Inhibition ([3]; 1 µM): 23%
OC1(c2cc3cc(Cl)c(C(F)(F)F)cc3[nH]2)CCN(Cc2ccc(Cl)cc2)CC1 [compound 31]	20%	4050 nM	–
CC(O)(SC1CCCCC1)c1cc2cc(C#N)c(C(F)(F)F)cc2[nH]1 (racemic) [compound 257]	–	–	IC50 [4, 8]: 5.15 µM
COc1ccc(CN2CCC(O)(c3cc4cc(Cl)c(C(F)(F)F)cc4[nH]3)CC2)cc1 [compound 35]	-19%	4200 nM	–
COc1cccc(CN2CCC(O)(c3cc4cc(Cl)c(C(F)(F)F)cc4[nH]3)CC2)c1 [compound 29]	-1.8%	4700 nM	–
CC(O)(CS(=O)(=O)Cc1ccccc1)c1cc2cc([N+](=O)[O-])c(C(F)(F)F)cc2[nH]1 (racemic) [compound 162]	–	–	% Activity [1]: 2%; active / inactive (inhibition of testosterone-enhanced prostate weight) [2]: inactive; % Inhibition [3, 5]: 0.69%
O=[N+]([O-])c1cc2cc(C3(O)CCN(Cc4ccc(Cl)c(Cl)c4)CC3)[nH]c2cc1C(F)(F)F [compound 43]	5.8%	9100 nM	–
CC(O)(Sc1ccc(Cl)cc1)c1cc2cc([N+](=O)[O-])c(C(F)(F)F)cc2[nH]1 (racemic) [compound 259]	–	–	IC50 [4, 8]: 0.915 µM
Cc1ccc(CN2CCC(O)(c3cc4cc(Cl)c(C(F)(F)F)cc4[nH]3)CC2)cc1 [compound 30]	-7.7%	4100 nM	–
CS(=O)(=O)c1ccc(CN2CCC(O)(c3cc4cc(Cl)c(C(F)(F)F)cc4[nH]3)CC2)cc1 [compound 34]	18%	5700 nM	–
CC(O)(SC1CCCCC1)c1cc2cc([N+](=O)[O-])c(C(F)(F)F)cc2[nH]1 (racemic) [compound 256]	–	–	IC50 [4, 8]: 2.65 µM
CC(O)(CSc1ccc(Cl)cc1)c1cc2cc(C#N)c(C(F)(F)F)cc2[nH]1 (centres unmarked) [compound 96]	–	–	IC50 [4]: 1.71 µM
O=[N+]([O-])c1cc2cc(C3(O)CCN(Cc4ccc(Cl)cc4)CC3)[nH]c2cc1C(F)(F)F [compound 41]	–	2300 nM	% Inhibition [3, 7]: 20%
CC(O)(COC(=O)c1ccccc1Cl)c1cc2cc([N+](=O)[O-])c(C(F)(F)F)cc2[nH]1 (centres unmarked) [compound 54]	–	–	IC50 [4]: 0.465 µM
Cc1ccc(CN2CCC(O)(c3cc4cc([N+](=O)[O-])c(C(F)(F)F)cc4[nH]3)CC2)cc1 [compound 27]	–	3100 nM	–
COc1cccc(CN2CCC(O)(c3cc4cc([N+](=O)[O-])c(C(F)(F)F)cc4[nH]3)CC2)c1 [compound 38]	–	8800 nM	% Inhibition [3, 7]: 16%
CC(O)(Sc1ccc(N)cc1)c1cc2cc([N+](=O)[O-])c(C(F)(F)F)cc2[nH]1 (racemic) [compound 266]	–	–	% Activity [1]: −4%; active / inactive (inhibition of testosterone-enhanced prostate weight) [2]: inactive; % Inhibition [3, 5]: 12.4%
COc1cccc(CN2CCC(O)(c3cc4cc([N+](=O)[O-])c(C(F)(F)F)cc4[nH]3)CC2)c1 [compound 39]	–	> 6100 nM	% Inhibition [3, 7]: 6%
OC1(c2cc3cc(Cl)c(C(F)(F)F)cc3[nH]2)CCN(Cc2ccc(F)cc2)CC1 [compound 28]	-3.4%	7000 nM	–
